Assay results taken from US20160332972A1, “UREA HYDANTOIN DERIVATIVES AS FORMYL PEPTIDE MODULATORS” (ALLERGAN, INC., priority 2014, published 2016).

Target: T1, FPR2 (Homo sapiens, UniProt P25090)
T1 construct: expressed in transfected cells
T1 sequence (P25090 1-351): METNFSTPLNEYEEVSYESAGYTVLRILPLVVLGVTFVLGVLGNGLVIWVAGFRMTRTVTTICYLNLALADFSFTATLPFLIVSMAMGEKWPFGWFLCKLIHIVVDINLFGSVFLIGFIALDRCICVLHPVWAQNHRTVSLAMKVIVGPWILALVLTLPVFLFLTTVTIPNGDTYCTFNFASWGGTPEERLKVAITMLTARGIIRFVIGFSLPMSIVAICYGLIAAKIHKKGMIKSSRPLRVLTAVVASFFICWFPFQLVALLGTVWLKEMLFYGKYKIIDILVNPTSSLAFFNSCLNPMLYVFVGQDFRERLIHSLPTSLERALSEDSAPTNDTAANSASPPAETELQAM
Assay: FLIPR Tetra calcium activity assay in CHO-Gα16 cells stably expressing FPR2
Assay type: cell-based
Experimental: CHO-Gα16 cells stably expressing FPR2 were cultured in F12 media (10% FBS, 1% PSA, 400 μg/ml geneticin and 50 μg/ml hygromycin). In general, the day before the experiment, 18,000 cells/well were plated in a 384-well clear bottom poly-D-lysine coated plate. The following day the screening compound-induced calcium activity was assayed on a FLIPR^Tetra. The drug plates were prepared in 384-well microplates using EP3 and MultiPROBE robotic liquid handling systems. Compounds were tested at concentrations ranging from 0.61 to 10,000 nM. Results are expressed as EC50 (nM) and % efficacy values.

- FPR2 Gα16-CHO (% eff) (% efficacy, calcium activity): (0.97) %
- EC50 (compound-induced calcium activity, tested at 0.61 to 10,000 nM): 49 nM
SMILES: CCOC(=O)CCNCCC1(CC)NC(=O)N(NC(=O)Nc2ccc(Br)cc2)C1=O (centres unmarked) [Compound 1, Ethyl 3-{[2-(1-{[(4-Bromophenyl)carbamoyl]amino}-4-ethyl-2,5-dioxoimidazolidin-4-yl)ethyl]amino}propanoate]
